Laboratory results as given in patent publication US20230102554A1 (GB002, INC., priority 2019, published 2023).

Key:
[1] = biological target: T1, Human PDGFRβ, cytoplasmic domain (GST-PDGFRβ) (Homo sapiens, UniProt P09619); experiment: Human PDGFRβ biochemical inhibition assay (off-chip Mobility Shift Assay)
T1 construct: made in house
In short: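 GST-tagged cytoplasmic domain (aa 557-1106) from baculovirus was incubated 1 h at room temperature with compound, CSKtide, ATP at Km and Mg²⁺ in HEPES buffer, pH 7.5. Phosphorylated and unphosphorylated peptide were separated by off-chip mobility shift, and the product ratio P/(P+S) gave percent inhibition.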

[2] = biological target: T2, Human PDGFRα, cytoplasmic domain (GST-PDGFRα) (Homo sapiens, UniProt P16234); experiment: Human PDGFRα biochemical inhibition assay (off-chip Mobility Shift Assay)
T2 construct: made in house
T2 sequence (P16234 550-1089 T674I): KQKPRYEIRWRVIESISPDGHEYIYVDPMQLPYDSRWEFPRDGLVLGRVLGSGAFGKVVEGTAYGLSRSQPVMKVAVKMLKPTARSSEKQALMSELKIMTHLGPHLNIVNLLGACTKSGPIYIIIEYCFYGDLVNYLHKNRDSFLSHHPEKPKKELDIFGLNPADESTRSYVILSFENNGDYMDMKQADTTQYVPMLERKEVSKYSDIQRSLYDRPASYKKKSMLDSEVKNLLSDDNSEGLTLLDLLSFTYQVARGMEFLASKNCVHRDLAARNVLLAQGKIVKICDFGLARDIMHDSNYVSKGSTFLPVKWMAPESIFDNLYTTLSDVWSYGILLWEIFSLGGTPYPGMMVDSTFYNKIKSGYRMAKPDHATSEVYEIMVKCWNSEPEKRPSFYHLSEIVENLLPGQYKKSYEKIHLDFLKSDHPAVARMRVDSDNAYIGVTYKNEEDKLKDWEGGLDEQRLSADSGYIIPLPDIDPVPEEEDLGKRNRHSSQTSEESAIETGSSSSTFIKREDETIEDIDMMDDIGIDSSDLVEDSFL

T1 sequence (P09619 with tags, fused parts or gaps): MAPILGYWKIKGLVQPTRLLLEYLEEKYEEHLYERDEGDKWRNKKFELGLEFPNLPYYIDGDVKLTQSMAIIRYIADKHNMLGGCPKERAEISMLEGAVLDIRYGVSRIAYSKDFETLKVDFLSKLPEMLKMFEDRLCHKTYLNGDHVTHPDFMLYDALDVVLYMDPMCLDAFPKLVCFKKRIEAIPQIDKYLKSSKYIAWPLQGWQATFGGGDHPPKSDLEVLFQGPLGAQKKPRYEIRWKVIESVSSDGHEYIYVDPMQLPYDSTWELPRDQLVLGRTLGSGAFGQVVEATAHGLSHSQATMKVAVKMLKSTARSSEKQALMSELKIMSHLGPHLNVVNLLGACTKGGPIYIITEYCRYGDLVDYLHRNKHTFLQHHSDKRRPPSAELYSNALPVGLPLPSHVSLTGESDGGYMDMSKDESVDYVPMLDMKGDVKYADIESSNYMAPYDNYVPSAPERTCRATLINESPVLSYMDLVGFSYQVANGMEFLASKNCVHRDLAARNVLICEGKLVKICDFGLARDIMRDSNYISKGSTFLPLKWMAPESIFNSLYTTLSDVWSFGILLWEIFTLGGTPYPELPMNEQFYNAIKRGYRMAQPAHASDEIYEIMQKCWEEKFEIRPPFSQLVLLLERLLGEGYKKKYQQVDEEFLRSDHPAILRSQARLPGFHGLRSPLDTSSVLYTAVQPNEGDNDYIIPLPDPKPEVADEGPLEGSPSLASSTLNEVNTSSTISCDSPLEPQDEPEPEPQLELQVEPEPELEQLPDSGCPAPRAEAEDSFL

IC50 [1]	IC50 [2]	Compound
< 300 nM	< 300 nM	Cc1cncc(C(=O)Nc2cccc([C@H](C)Nc3cnc4ccc(-c5cnn(C)c5)cc4n3)c2)c1 [Compound 42, (S)-5-methyl-N-(3-(1-((7-(1-methyl-1H-pyrazol-4-yl)quinoxalin-2-yl)amino)ethyl)phenyl)nicotinamide]
< 300 nM	< 300 nM	Cc1cc(C(=O)Nc2cccc([C@H](C)Nc3cnc4[nH]cc(-c5cnn(C)c5)c4n3)c2)cnc1C(F)(F)F [Compound 576, (S)-5-methyl-N-(3-(1-((7-(1-methyl-1H-pyrazol-4-yl)-5H-pyrrolo[2,3-b]pyrazin-2-yl)amino)ethyl)phenyl)-6-(trifluoromethyl)nicotinamide]
300 to 1000 nM	< 300 nM	CCn1cc2ncc(N[C@@H](C)c3cccc(NC(=O)Nc4cnn(CC(C)C)c4)c3)nc2n1 [Compound 740, (S)-1-(3-(1-((2-ethyl-2H-pyrazolo[3,4-b]pyrazin-6-yl)amino)ethyl)phenyl)-3-(1-isobutyl-1H-pyrazol-4-yl)urea]
< 300 nM	< 300 nM	C[C@H](Nc1cnc2cnn(C)c2n1)c1cccc(NC(=O)c2ccc(C3CC3)s2)c1 [Compound 136, (S)-5-cyclopropyl-N-(3-(1-((1-methyl-1H-pyrazolo[3,4-b]pyrazin-6-yl)amino)ethyl)phenyl)thiophene-2-carboxamide]
300 to 1000 nM	< 300 nM	CCn1cc2ncc(N[C@@H](C)c3cccc(NC(=O)Cc4ccc(F)c(C)n4)c3)nc2n1 [Compound 699, (S)-N-(3-(1-((2-ethyl-2H-pyrazolo[3,4-b]pyrazin-6-yl)ainino)ethyl)phenvl)-2-(5-fluoro-6-methylpyridin-2-yl) acetamide]
< 300 nM	< 300 nM	CCn1cc2ncc(N[C@@H](C)c3cccc(NC(=O)c4ccc(N(C)C)c(C)c4)c3)nc2n1 [Compound 384, (S)-4-(dimethylamino)-N-(3-(1-((2-ethyl-2H-pyrazolo[3,4-b]pyrazin-6-yl)amino)ethyl)phenyl)-3-methylbenzamide]
< 300 nM	< 300 nM	C[C@H](Nc1cnc2cnn(C)c2n1)c1cccc(NC(=O)c2ccc(C3CC3)nc2)c1 [Compound 116, (S)-6-cyclopropyl-N-(3-(1-((1-methyl-1H-pyrazolo[3,4-b]pyrazin-6-yl)amino)ethyl)phenyl)nicotinamide]
≥ 1000 nM	300 to 1000 nM	Cc1cncc(C(=O)Nc2cccc([C@H](C)Nc3cnc4ncccc4n3)c2)c1 [Compound 26, (S)-5-methyl-N-(3-(1-(pyrido[2,3-b]pyrazin-2-ylamino)ethyl)phenyl) nicotinamide]
< 300 nM	< 300 nM	CCn1cc2ncc(N[C@@H](C)c3cc(NC(=O)c4ccc(OC5CCN(C)CC5)c(C)c4)ccc3F)nc2n1 [Compound 447, (S)-N-(3-(1-((2-ethyl-2H-pyrazolo[3,4-b]pyrazin-6-yl)amino)ethyl)-4-fluorophenyl)-3-methyl-4-((1-methylpiperidin-4-yl)oxy)benzamide]
< 300 nM	< 300 nM	Cc1cc(C(=O)Nc2cccc([C@H](C)Nc3cnc4cnn(C)c4n3)c2)ccc1C#N [Compound 193, (S)-4-cyano-3-methyl-N-(3-(1-((1-methyl-1H-pyrazolo[3,4-b]pyrazin-6-yl)amino)ethyl)phenyl)benzamide]
< 300 nM	< 300 nM	C[C@H](Nc1cnc2[nH]ccc2n1)c1cc(NC(=O)c2ccc(C3CC3)nc2)ccc1F [Compound 599, (S)-N-(3-(1-((5H-pyrrolo[2,3-b]pyrazin-2-yl)amino)ethyl)-4-fluorophenyl)-6-cyclopropylnicotinamide]
< 300 nM	< 300 nM	CCn1cc2ncc(N[C@@H](C)c3cccc(NC(=O)c4cnc(F)c(C)c4)c3)nc2n1 [Compound 329, (S)-N-(3-(1-((2-ethyl-2H-pyrazolo[3,4-b]pyrazin-6-yl)amino)ethyl)phenyl)-6-fluoro-5-methylnicotinamide]
≥ 1000 nM	≥ 1000 nM	CCn1cc2ncc(N[C@@H](C)c3cc(NC(=O)Cc4ccc(C(C)(C)O)cn4)ccc3C)nc2n1 [Compound 705, (S)-N-(3-(1-((2-ethyl-2H-pyrazolo[3,4-b]pyrazin-6-yl)amino)ethyl)-4-methylphenyl)-2-(5-(2-hydroxypropan-2-yl)pyridin-2-yl)acetamide]
< 300 nM	< 300 nM	CCn1cc2ncc(N[C@@H](C)c3cc(NC(=O)c4cc(F)c(CN5CCOCC5)c(Cl)c4)ccc3C)nc2n1 [Compound 520, (S)-3-chloro-N-(3-(1-((2-ethyl-2H-pyrazolo[3,4-b]pyrazin-6-yl)amino)ethyl)-4-methylphenyl)-5-fluoro-4-(morpholinomethyl) benzamide]
< 300 nM	< 300 nM	CCn1cc2ncc(N[C@@H](C)c3cccc(NC(=O)c4ccc(CN5CCOCC5)c(C(F)(F)F)c4)c3)nc2n1 [Compound 424, (S)-N-(3-(1-((2-ethyl-2H-pyrazolo[3,4-b]pyrazin-6-yl)amino)ethyl)phenyl)-4-(morpholinomethyl)-3-(trifluoromethyl)benzamide]
< 300 nM	< 300 nM	CCn1cc2ncc(N[C@@H](C)c3cccc(NC(=O)c4cncc(C(C)(C)F)c4)c3)nc2n1 [Compound 280, (S)-N-(3-(1-((2-ethyl-2H-pyrazolo[3,4-b]pyrazin-6-yl)amino)ethyl)phenyl)-5-(2-fluoropropan-2-yl)nicotinamide]
< 300 nM	< 300 nM	CC(C)n1cc(C(=O)Nc2cccc([C@H](C)Nc3cnc4cnn(C)c4n3)c2)cn1 [Compound 147, (S)-1-isopropyl-N-(3-(1-((1-methyl-1H-pyrazolo[3,4-b]pyrazin-6-yl)amino)ethyl)phenyl)-1H-pyrazole-4-carboxamide]
< 300 nM	< 300 nM	CCn1cc2ncc(N[C@@H](C)c3cccc(NC(=O)c4cc(F)c(CN5CCCC5)c(Cl)c4)c3)nc2n1 [Compound 488, (S)-3-chloro-N-(3-(1-((2-ethyl-2H-pyrazolo[3,4-b]pyrazin-6-yl)amino)ethyl)phenyl)-5-fluoro-4-(pyrrolidin-1-ylmethyl) benzamide]
< 300 nM	< 300 nM	CCn1cc2ncc(N[C@@H](C)c3cccc(NC(=O)c4ccc(CN5CC(O)C5)c(Cl)c4)c3)nc2n1 [Compound 487, (S)-3-chloro-N-(3-(1-((2-ethyl-2H-pyrazolo[3,4-b]pyrazin-6-yl)amino)ethyl)phenyl)-4-((3-hydroxyazetidin-1-yl)methyl) benzamide]
< 300 nM	< 300 nM	C[C@H](Nc1cnc2cn[nH]c2n1)c1cccc(NC(=O)c2cncc(C(C)(C)O)c2)c1 [Compound 95, (S)-N-(3-(1-((1H-pyrazolo[3,4-6]pyrazin-6-yl)amino)ethyl)phenyl)-5-(2-hydroxypropan-2-yl)nicotinamide]
< 300 nM	< 300 nM	CCn1cc2ncc(N[C@@H](C)c3cccc(NC(=O)c4ccc(C5CC5)s4)c3)nc2n1 [Compound 291, (S)-5-cyclopropyl-N-(3-(1-((2-ethyl-2H-pyrazolo[3,4-b]pyrazin-6-yl)amino)ethyl)phenyl)thiophene-2-carboxamide]
< 300 nM	< 300 nM	COC(=O)c1ccc(C(=O)Nc2cccc([C@H](C)Nc3cnc4cnn(C)c4n3)c2)cc1OC [Compound 261, methyl (S)-2-methoxy-4-((3-(1-((1-methyl-1H-pyrazolo[3,4-b]pyrazin-6-yl)amino)ethyl)phenyl)carbamoyl)benzoate]
300 to 1000 nM	≥ 1000 nM	C[C@H](Nc1cnc2[nH]cc(-c3cnn(C)c3)c2n1)c1cccc(NC(=O)[C@@H]2C[C@H]2C(F)(F)F)c1 [Compound 589, (1R,2R)-N-(3-((S)-1-((7-(1-methyl-1H-pyrazol-4-yl)-5H-pyrrolo[2,3-b]pyrazin-2-yl)amino)ethyl)phenyl)-2-(trifluoromethyl)cyclopropane-1-carboxamide]
≥ 1000 nM	300 to 1000 nM	CCn1cc2ncc(N[C@@H](C)c3cccc(NC(=O)Cc4cccnc4)c3)nc2n1 [Compound 624, (S)-N-(3-(1-((2-ethyl-2H-pyrazolo[3,4-b]pyrazin-6-yl)amino)ethyl)phenyl)-2-(pyridin-3-yl)acetamide]
< 300 nM	< 300 nM	Cc1cc2ncc(N[C@@H](C)c3cc(NC(=O)c4ccc(C(F)(F)F)nc4)ccc3F)nc2o1 [Compound 614, (S)-N-(4-fluoro-3-(1-((6-methylfuro[2,3-b]pyrazin-3-yl)amino)ethyl)phenyl)-6-(trifluoromethyl)nicotinamide]
< 300 nM	< 300 nM	CCOc1ncc(C(=O)Nc2ccc(F)c([C@H](C)Nc3cnc4cn(CC)nc4n3)c2)cc1C [Compound 316, (S)-6-ethoxy-N-(3-(1-((2-ethyl-2H-pyrazolo[3,4-b]pyrazin-6-yl)amino)ethyl)-4-fluorophenyl)-5-methylnicotinamide]
< 300 nM	< 300 nM	CCn1cc2ncc(N[C@@H](C)c3cccc(NC(=O)c4ccc(C)c(Cl)c4)c3)nc2n1 [Compound 332, (S)-3-chloro-N-(3-(1-((2-ethyl-2H-pyrazolo[3,4-b]pyrazin-6-yl)amino)ethyl)phenyl)-4-methylbenzamide]
< 300 nM	< 300 nM	CCn1cc2ncc(N[C@@H](C)c3cccc(NC(=O)c4ccc(CN5CC6(COC6)C5)c(Cl)c4)c3)nc2n1 [Compound 415, (S)-4-((2-oxa-6-azaspiro[3.3]heptan-6-yl)methyl)-3-chloro-N-(3-(1-((2-ethyl-2H-pyrazolo[3,4-b]pyrazin-6-yl)amino)ethyl)phenyl)benzamide]

Compound	IC50 [1]	IC50 [2]
CC(=O)OC(C)OC(=O)c1ccc(C(=O)Nc2cccc([C@H](C)Nc3cnc4cnn(C)c4n3)c2)cc1C (stereo partly drawn) [Compound 256, 1-acetoxyethyl 2-methyl-4-((3-((S)-1-((1-methyl-1H-pyrazolo[3,4-b]pyrazin-6-yl)amino)ethyl)phenyl)carbamoyl) benzoate]	< 300 nM	< 300 nM
